Here are results for 14 molecules from US10669272B2, “Substituted naphthyridinone compounds useful as T cell activators” (BRISTOL-MYERS SQUIBB COMPANY, priority 2018, dated 2020).

Where two headings read alike, the source gives them in different places.

One test deals with T1, human DGKα (Homo sapiens, UniProt P23743).
T1 construct: TVMV protease cleavage site (C); Hexa-His (C); made in house; host or cells: Sf9 insect cells (baculovirus, Bac-to-Bac)
In words: DGKα LIPGLO assay (extruded liposome substrate), in vitro DGK inhibition. It is filed as biochemical. The conditions noted are these: liposome (LIPGLO) assay; read-out: DGKa LIPGLO IC50.

A further test has as its target T2, human DGKζ (Homo sapiens, UniProt Q13574).
T2 construct: TVMV protease cleavage site (C); Hexa-His (C); made in house; host or cells: Sf9 insect cells (baculovirus, Bac-to-Bac)
In words: DGKζ LIPGLO assay (extruded liposome substrate), in vitro DGK inhibition. It is filed as biochemical. The conditions noted are these: liposome (LIPGLO) assay; read-out: DGKz LIPGLO IC50.

The subject of test [1] is OT-1 CD8+ T cells with SIINFEKL-loaded MC38 tumor cells. In words: Murine cytotoxic T lymphocyte assay (IFN-γ, OT-1 CTL with MC38 tumor cells). The class given is cell-based, mouse. The conditions noted are these: read-out: msCTL INFg IC50. A digest of the protocol:
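IFN-γ was quantified by AlphaLISA in supernatants after 24 h co-culture at 37° C. Effectors were OT-1 CD8+ CTLs (5-day peptide/mIL2 expansion), exposed 1 h to DGK inhibitors before mixing 1:10 with MC38 tumor cells loaded 3 h with 1 μg/mL SIINFEKL peptide.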

For the next test, the system named is naïve human CD8 T cells. Briefly: Human CD8 T cells IFN-γ assay.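 Note: Naïve human CD8 T cells stimulated with plate-bound anti-CD3 and soluble anti-CD28, IFN-γ in supernatant quantified by AlphaLISA and converted to pg/mL.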 The class given is cell-based. The conditions noted are these: normalized to 3 μM reference compound with anti-CD3 plus anti-CD28 as 100% activation, read-out: HuCD8 INFG Normalized EC50.
Another test concerns Human venous whole blood. Briefly: Human whole blood IFN-γ assay.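 Note: blood from healthy donors exposed to compound for 1 h before stimulation with anti-CD3 and anti-CD28 at 1 µg/mL each, IFN-γ quantified in supernatant by AlphaLISA.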 The conditions noted are these: human whole blood, normalized to 3 μM reference compound with anti-CD3 plus anti-CD28 as 100% activation, read-out: INFg Whole Blood Normalized Agonist EC50. It is filed as cell-based.

T2 sequence (Q13574 with tags, fused parts or gaps isoform Q13574-4): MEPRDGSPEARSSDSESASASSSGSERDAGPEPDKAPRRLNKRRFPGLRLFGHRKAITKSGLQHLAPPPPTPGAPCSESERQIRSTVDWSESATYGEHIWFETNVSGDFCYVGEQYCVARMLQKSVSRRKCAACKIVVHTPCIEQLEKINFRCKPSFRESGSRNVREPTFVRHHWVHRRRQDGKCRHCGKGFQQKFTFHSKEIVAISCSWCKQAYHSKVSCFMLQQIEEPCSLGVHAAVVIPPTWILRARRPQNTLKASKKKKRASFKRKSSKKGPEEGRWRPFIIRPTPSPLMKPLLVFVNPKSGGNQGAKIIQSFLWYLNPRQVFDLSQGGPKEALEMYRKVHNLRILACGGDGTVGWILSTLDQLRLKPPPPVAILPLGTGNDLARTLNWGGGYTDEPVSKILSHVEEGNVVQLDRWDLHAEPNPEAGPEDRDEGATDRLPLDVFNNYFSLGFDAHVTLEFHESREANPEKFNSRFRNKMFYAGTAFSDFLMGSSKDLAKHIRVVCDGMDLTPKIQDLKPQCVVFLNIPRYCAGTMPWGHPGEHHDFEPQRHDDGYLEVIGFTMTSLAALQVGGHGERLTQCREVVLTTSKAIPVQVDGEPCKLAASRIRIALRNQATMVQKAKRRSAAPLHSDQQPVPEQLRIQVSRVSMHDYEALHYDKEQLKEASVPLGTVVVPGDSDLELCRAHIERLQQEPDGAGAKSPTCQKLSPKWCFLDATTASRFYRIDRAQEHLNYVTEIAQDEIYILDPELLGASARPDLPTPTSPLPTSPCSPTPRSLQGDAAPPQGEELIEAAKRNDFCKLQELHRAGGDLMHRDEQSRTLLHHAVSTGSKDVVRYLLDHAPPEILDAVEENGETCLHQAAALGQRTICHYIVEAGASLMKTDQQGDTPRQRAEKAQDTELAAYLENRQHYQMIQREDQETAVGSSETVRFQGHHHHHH
T1 sequence (P23743 with tags, fused parts or gaps): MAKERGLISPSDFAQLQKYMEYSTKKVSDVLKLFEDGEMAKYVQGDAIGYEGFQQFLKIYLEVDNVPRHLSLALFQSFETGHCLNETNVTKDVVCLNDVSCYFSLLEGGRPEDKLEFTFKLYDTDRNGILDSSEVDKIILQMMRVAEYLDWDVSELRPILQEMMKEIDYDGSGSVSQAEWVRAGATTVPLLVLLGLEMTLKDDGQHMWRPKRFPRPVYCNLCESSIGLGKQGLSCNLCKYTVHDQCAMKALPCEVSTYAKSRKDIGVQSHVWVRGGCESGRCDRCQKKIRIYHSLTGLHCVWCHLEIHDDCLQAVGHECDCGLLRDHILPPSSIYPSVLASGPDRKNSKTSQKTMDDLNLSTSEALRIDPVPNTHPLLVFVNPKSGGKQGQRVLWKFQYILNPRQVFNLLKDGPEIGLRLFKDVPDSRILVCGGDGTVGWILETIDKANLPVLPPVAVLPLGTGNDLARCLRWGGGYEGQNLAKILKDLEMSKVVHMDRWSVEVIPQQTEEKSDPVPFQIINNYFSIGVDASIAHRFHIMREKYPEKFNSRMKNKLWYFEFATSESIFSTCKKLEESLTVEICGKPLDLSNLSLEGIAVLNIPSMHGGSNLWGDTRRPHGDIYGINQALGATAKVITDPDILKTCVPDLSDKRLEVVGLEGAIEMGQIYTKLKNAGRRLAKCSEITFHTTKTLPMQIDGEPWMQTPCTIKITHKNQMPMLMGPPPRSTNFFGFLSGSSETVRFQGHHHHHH
Description for Human venous whole blood: Human Whole Blood IFN-γ Assay
Human venous whole blood (22.5 μL per well), obtained from healthy donors, was pre-treated with compounds for one hour at 37° C. in a humidified 95% air/5% CO2 incubator. The blood was stimulated with 2.5 μL anti-human CD3 and anti-CD28 mAb at a final concentration of 1 μg/mL each for 24 hours at 37° C. IFN-γ in the supernatants was measured using AlphLISA kit (Cat # AL217).

Regarding `Cc1ccc(C(c2ccc(C)cc2)N2C[C@H](C)N(c3cc(=O)n(C)c4ccc(C#N)nc34)C[C@H]2C)cc1` [Example 301, 8-[(2S,5R)-4-[bis(4-methylphenyl)methyl]-2,5-dimethylpiperazin-1-yl]-5-methyl-6-oxo-5,6-dihydro-1,5-naphthyridine-2-carbonitrile], the IC50 was 1500 nM at human DGKα; 870 nM on human DGKζ; 72 nM in test [1] (Mus musculus, MC-38). For the same molecule, the concentration giving a half-maximal response (EC50) with naïve human CD8 T cells (Homo sapiens, T-cell, 20 h) was 9.5 nM; in the test with Human venous whole blood (Homo sapiens), 520 nM.
On to `CC[C@@H]1CN(c2c(C#N)c(=O)n(C)c3ccc(C#N)nc23)CCN1C(c1ccc(Cl)cc1)c1ccc(Cl)cc1` [Example 179, (R)-8-(4-(bis(4-chlorophenyl)methyl)-3-ethylpiperazin-1-yl)-5-methyl-6-oxo-5,6-dihydro-1,5-naphthyridine-2,7-dicarbonitrile], for which the half-maximal inhibitory concentration (IC50) was 880 nM on human DGKα; 880 nM at human DGKζ; 49 nM in test [1] (Mus musculus, MC-38). The EC50 in the test with naïve human CD8 T cells (Homo sapiens, T-cell, 20 h) is 52 nM; with Human venous whole blood (Homo sapiens, 24 h) it was 1000 nM.
Take `C[C@@H]1CN(c2cc(=O)n(C)c3ccc(C#N)nc23)[C@@H](C)CN1Cc1ccc(F)c(F)c1` [Example 291, 8-[(2S,5R)-4-[(3,4-difluorophenyl)methyl]-2,5-dimethylpiperazin-1-yl]-5-methyl-6-oxo-5,6-dihydro-1,5-naphthyridine-2-carbonitrile]: the half-inhibitory concentration (IC50) on human DGKα was determined as 600 nM; at human DGKζ, 1500 nM; in test [1] (Mus musculus, MC-38), 470 nM. For the same molecule, the concentration for a half-maximal effect (EC50) was 34 nM in the test with naïve human CD8 T cells (Homo sapiens, T-cell, 20 h) and 1300 nM with Human venous whole blood (Homo sapiens, 24 h).
For the molecule `COC(=O)C1CN(C(c2ccc(F)cc2)c2ccc(F)cc2)CCN1c1c(C#N)c(=O)n(C)c2ccc(C#N)nc12` (single isomer, unassigned) [Example 117, Methyl 4-(bis(4-fluorophenyl)methyl)-1-(3,6-dicyano-1-methyl-2-oxo-1,2-dihydro-1,5-naphthyridin-4-yl)piperazine-2-carboxylate], the IC50 at human DGKα was 350 nM; at human DGKζ it was 7200 nM; in test [1] it was 270 nM. Also, the EC50 is 280 nM in the test with naïve human CD8 T cells and 2500 nM in the test on Human venous whole blood.
On the same counts, the results for `COC(=O)C1CN(c2cc(=O)n(C)c3ccc(C#N)nc23)CCN1C(c1ccc(F)cc1)c1ccc(F)cc1` (single isomer, unassigned) [Example 39, Methyl 1-(bis(4-fluorophenyl)methyl)-4-(6-cyano-1-methyl-2-oxo-1,2-dihydro-1,5-naphthyridin-4-yl)piperazine-2-carboxylate] are 240000 nM, 9400 nM, 1900 nM, 220 nM and 9700 nM.
The corresponding values for `Cn1c(=O)cc(N2CCN(C(c3ccc(F)cc3)c3ccc(F)cc3)C(C(=O)OC3CC3)C2)c2nc(C#N)ccc21` (single isomer, unassigned) [Example 107, cyclopropyl 1-(bis(4-fluorophenyl)methyl)-4-(6-cyano-1-methyl-2-oxo-1,2-dihydro-1,5-naphthyridin-4-yl)piperazine-2-carboxylate] are 40000 nM, 200 nM, 750 nM, 27 nM and 11000 nM.
On the same counts, the results for `Cn1c(=O)c(Cl)c(N2CCN(C(c3ccc(F)cc3)c3ccc(F)cc3)C(CO)C2)c2nc(C#N)ccc21` (single isomer, unassigned) [Example 101, 8-(4-(bis (4-fluorophenyl)methyl)-3-(hydroxymethyl)piperazin-1-yl)-7-chloro-5-methyl-6-oxo-5,6-dihydro-1,5-naphthyridine-2-carbonitrile] are 3300 nM, 1600 nM, 140 nM, 77 nM and 2300 nM.
On to `Cn1c(=O)cc(N2CCN(C(c3ccc(F)cc3)c3ccc(F)cc3)C(C(C)(C)O)C2)c2nc(C#N)ccc21` (single isomer, unassigned) [Example 79, 8-(4-(bis(4-fluorophenyl)methyl)-3-(2-hydroxypropan-2-yl)piperazin-1-yl)-5-methyl-6-oxo-5,6-dihydro-1,5-naphthyridine-2-carbonitrile], for which the IC50 is 6700 nM on human DGKα, 240000 nM on human DGKζ and 8000 nM in test [1]. In addition, the EC50 in the test with naïve human CD8 T cells and in the test with Human venous whole blood was 10000 nM in each case.
Take `C[C@@H]1CN(c2c([N+](=O)[O-])c(=O)n(C)c3ccc(C#N)nc23)[C@@H](C)CN1C(c1ccc(F)cc1)c1ccc(F)cc1` [Example 161, 8-((2S,5R)-4-(bis(4-fluorophenyl)methyl)-2,5-dimethylpiperazin-1-yl)-5-methyl-7-nitro-6-oxo-5,6-dihydro-1,5-naphthyridine-2-carbonitrile]: the 50% inhibitory concentration (IC50) on human DGKα came to 68000 nM; at human DGKζ it was 29000 nM; in test [1] (Mus musculus, MC-38), 1500 nM. Also, the EC50 came out at 520 nM in the test on naïve human CD8 T cells (Homo sapiens, T-cell, 20 h) and 8600 nM in the test on Human venous whole blood (Homo sapiens, 24 h).
Regarding `Cc1ccc(C(c2ccc(F)cc2)N2C[C@H](C)N(c3cc(=O)n(C)c4ccc(C#N)nc34)C[C@H]2C)cc1` (single isomer, unassigned) [Example 252], the IC50 at human DGKα is 660 nM; at human DGKζ, 440 nM; in test [1], 22 nM. Further, the figures for the EC50 in the test with naïve human CD8 T cells and in the test on Human venous whole blood were 160 nM and 430 nM, respectively.
For the molecule `CC[C@@H]1CN(c2cc(=O)n(C)c3ccc(C#N)nc23)CCN1C(c1ccc(Cl)cc1)c1ccc(Cl)cc1` [Example 180, (R)-8-(4-(bis(4-chlorophenyl)methyl)-3-ethylpiperazin-1-yl)-5-methyl-6-oxo-5,6-dihydro-1,5-naphthyridine-2-carbonitrile], the IC50 was 4100 nM at human DGKα; 1500 nM on human DGKζ; 400 nM in test [1] (Mus musculus, MC-38). The 50% effective concentration (EC50) came to 70 nM in the test on naïve human CD8 T cells (Homo sapiens, T-cell, 20 h) and 830 nM with Human venous whole blood (Homo sapiens, 24 h).
Regarding `Cn1c(=O)cc(N2CCN(C(c3ccc(F)cc3)c3ccc(F)cc3)C(C(C)(C)O)C2)c2nc(C#N)ccc21` (single isomer, unassigned) [Example 78, 8-(4-(bis(4-fluorophenyl)methyl)-3-(2-hydroxypropan-2-yl)piperazin-1-yl)-5-methyl-6-oxo-5,6-dihydro-1,5-naphthyridine-2-carbonitrile], the 50% inhibitory concentration (IC50) on human DGKα came out at 18000 nM; at human DGKζ, 1900 nM; in test [1] it was 2000 nM. The concentration for a half-maximal effect (EC50) in the test on naïve human CD8 T cells came out at 210 nM; in the test on Human venous whole blood (Homo sapiens, 24 h) it was 8400 nM.
Regarding `COC(=O)C1CN(c2c(Cl)c(=O)n(C)c3ccc(C#N)nc23)CCN1C(c1ccc(F)cc1)c1ccc(F)cc1` (single isomer, unassigned) [Example 77, methyl 1-(bis(4-fluorophenyl)methyl)-4-(3-chloro-6-cyano-1-methyl-2-oxo-1,2-dihydro-1,5-naphthyridin-4-yl)piperazine-2-carboxylate], the values for the IC50 (at human DGKα; at human DGKζ; in test [1]) were 81000 nM, 240000 nM and 3300 nM, respectively. For the same molecule, the EC50 with naïve human CD8 T cells was determined as 10000 nM; in the test with Human venous whole blood, 1700 nM.
On the same counts, the results for `COC(=O)C1CN(c2cc(=O)n(C)c3ccc(C#N)nc23)CCN1C(c1ccc(F)cc1)c1ccc(F)cc1` (single isomer, unassigned) [Example 40, Methyl 1-(bis(4-fluorophenyl)methyl)-4-(6-cyano-1-methyl-2-oxo-1,2-dihydro-1,5-naphthyridin-4-yl)piperazine-2-carboxylate] are 1200 nM, 630 nM, 71 nM, 28 nM and 780 nM.

Broadly, the IC50 is the midpoint of a concentration-inhibition curve. A word on the EC50: it is the concentration needed to bring the measured effect to its halfway point.
